We go through 94 compounds from ChEMBL document CHEMBL3507680, “University of Dundee, Gates Library screen for HepG2 cell viability”.

The nature of this data set: Human HepG2 cell viability assay in 384 well format. Details: dose 125 nL, time 70.5 hour; cytotoxicity at 70.5 h: concentration not given beside the values. It counts as toxicity, cell-based. As to conditions: HepG2 cells, read-out: Inhibition.
On to `COCC(=O)NCc1cc(=O)n2c(n1)CN(Cc1nccs1)CCC2`, for which the cytotoxicity at 70.5 h was -5.03%.
On to `O=C(Cc1ccsc1)N1C[C@@H]2COC[C@]2(COc2cccnc2)C1`, for which the cytotoxicity at 70.5 h was -6.1%.
Next, `O=C(c1ccnnc1)N1CCC2(CC1)CCN(C(=O)c1cccnc1)C2`: -0.196%; `CNC(=O)N1CC[C@@H]2CN(Cc3cccc(OC)c3)S(=O)(=O)[C@@H]2CC1`: -11.1%.
With `COCCC(=O)N1CCC2(COCc3cnc(-c4cccnc4)nc32)C1` (centres undefined), the cytotoxicity at 70.5 h was -6.92%.
Next, `Cn1nc(COc2cccnc2)c2c1CCN(c1ncccn1)C2`: -14.2%.
Next, `CS(=O)(=O)N1C[C@@H](NC(=O)c2ccno2)[C@@H]2OCCC[C@@H]21`: -12.2%; `Cc1cnc(N2CCc3onc(COc4cccnc4)c3C2)nc1`: -3.25%; `CC(C)C(=O)N1CCC2(COCc3cnc(-c4cccnc4)nc32)C1` (centres undefined): -7.75%.
Next, `CN(C)S(=O)(=O)N1CCC2(COCc3cnc(-c4cccnc4)nc32)C1` (centres undefined): -9.11%; `CS(=O)(=O)NC[C@]12COC[C@H]1CN(C(=O)C1CCSCC1)C2`: -5.88%; `Cc1noc([C@H]2C[C@@H]3CCN(C(=O)c4cccn4C)C[C@H]3O2)n1`: -3.46%.
For `CCC(Nc1nc(C)nc2onc(C)c12)c1cccs1` (centres undefined), the cytotoxicity at 70.5 h is -2.98%.
Next, `COCc1noc(CCNC(=O)c2cc(C)c(C)[nH]c2=O)n1`: -7.79%; `CCCSCC(=O)N1CCCC(CO)(CCC)C1` (centres undefined): -22.8%.
The same measure for `O=C1CCCN1C1CCN(S(=O)(=O)CCOc2ccc(F)cc2)CC1`: 23.9%; for `CC(C)=CCN1C[C@H]2CC[C@@H]1CN(C(=O)CCc1n[nH]c(C)n1)C2`: -1.3%; for `Cc1cc(C(=O)N2CCCC(c3ccc(C(=O)O)cc3)C2)c(C)o1` (centres undefined): -17.2%.
The same measure for `O=C(CN1CCOCC1)N1CCC2(CCCN(C3CCOCC3)C2=O)C1` (centres undefined): 0.199%; for `Cc1noc([C@@H]2CCCN2C(=O)C2CCN(CC(N)=O)CC2)n1`: -5.63%; for `COCc1noc(-c2ccc(N(C)Cc3ccc(C)o3)nc2)n1`: -2.55%.
With `Cc1nc2c(c(=O)n1C)CCN(Cc1cc3cc[nH]c3cn1)CC2`, the cytotoxicity at 70.5 h came to 10.6%.
On to `CC(C)CCN1CCCC(Cn2cc(CCO)nn2)C1` (centres undefined), for which the cytotoxicity at 70.5 h was -2.37%.
For `CC(C)Nc1cc(N2CCCC3(CN(C)C(=O)O3)C2)ncn1` (centres undefined), the cytotoxicity at 70.5 h worked out at 15%.
Regarding `O=C(O)c1cc(-c2ccncc2)cc(S(=O)(=O)N2CCSCC2)c1`, the cytotoxicity at 70.5 h is -6.71%.
With `COCCc1noc(C2CCCN(c3ncnc4c3CCC4)C2)n1` (centres undefined), the cytotoxicity at 70.5 h is -13.9%.
Next, `Cc1cc(N[C@H]2CN(CC(C)(C)N3CCOCC3)C[C@@H]2C2CC2)ncn1`: -15.4%; `CCc1ncc(C(=O)N2CCCOC(Cn3cccn3)C2)cn1` (centres undefined): -0.891%.
Next, `CN(Cc1n[nH]c2c1CCC2)c1nc(C2CCCC2)nc2c1CNC2`: -8.94%; `Cn1ccnc1CN1C[C@@H](CN2CCCC2)[C@@H](CO)C1`: -5.13%; `Cn1ccnc1C1CCN(S(=O)(=O)c2ccc3oc(=O)[nH]c3c2)CC1`: -9.3%.
Turning to `Cc1cnc(C)c(N2CCC(C(=O)O)(n3ccc(C(C)(C)C)n3)CC2)n1`, the cytotoxicity at 70.5 h turned out to be 30.8%.
Consider `COc1cccc2ccc(CN3CCN(c4ncccn4)CC3)nc12`, for which the cytotoxicity at 70.5 h is -5.87%.
Consider `O=C(NCCc1csc(-c2cccnc2)n1)c1cnn2c1CCCC2`, for which the cytotoxicity at 70.5 h was -7.57%.
The same measure for `O=S(=O)(NCC1CCCN(Cc2ccccc2F)C1)C1CC1` (centres undefined): -5.21%; for `O=C(C1CC1)N1CCc2[nH]cnc2C12CCN(C1CCOCC1)CC2`: -2.02%; for `COCCN(Cc1ccc(C)cc1)Cc1nccn1C`: -0.21%.
For the compound `COc1cc2c(cc1C(=O)N1CCCCC1c1ccccn1)CCC2` (centres undefined), the cytotoxicity at 70.5 h is -24%.
Next, `COc1ccc(C(=O)C2CCCN(Cc3cccc(F)c3)C2)c(OC)c1` (centres undefined): -0.757%; `Cc1[nH]c2ccc(CNC3CCN(Cc4ccccn4)CC3)cc2c1C`: 3.44%.
As to `CN(Cc1ccsc1)C(=O)c1ccc(C2CCCO2)s1` (centres undefined), the cytotoxicity at 70.5 h is 30.9%.
The same measure for `COCC1CCN(C(=O)c2cn(Cc3cccc(C(F)(F)F)c3)nn2)C1` (centres undefined): -12.5%; for `Cc1ccsc1CN(Cc1ncccc1C(=O)O)C1CC1`: -5.62%.
As to `Cc1cccc(C(C(=O)N2CC(Oc3ccccc3F)C2)N(C)C)c1` (centres undefined), the cytotoxicity at 70.5 h is -1.02%.
Regarding `FC(F)(F)CCc1ccnc(N2CCN(Cc3ccncc3)CC2)n1`, the cytotoxicity at 70.5 h is -13.8%.
Take `CCC(C)N(Cc1cnc(NCC(=O)O)nc1)Cc1ccsc1` (centres undefined): the cytotoxicity at 70.5 h is -7.35%.
The same measure for `Cc1ccc([C@@H]2CN(C(=O)c3cc(C)no3)C[C@H]2NC(=O)C2CC2)cc1`: -6.47%; for `CN(C(=O)CC1=CCCCC1)C1CCCN(C2Cc3ccccc3C2)C1` (centres undefined): -0.808%; for `CNC(=O)[C@@H]1C[C@@H](N)CN1c1nc(N2CCCC2)nc(C)c1C`: -10.2%.
Next, `Cc1cc(C)c2c(NCCC34CCCN3CCC4)ncnc2n1`: -3.78%; `Cc1cc(C)c2ncn(CCOCCO)c(=O)c2c1`: -5.3%; `COCCC1(CO)CCCN(Cc2ccc(C(F)(F)F)cc2)C1` (centres undefined): -4.92%.
Turning to `CC(C)(O)CCc1cccc(C(=O)N2CCC[C@H]2CN2CCCC2)c1`, the cytotoxicity at 70.5 h is 32.8%.
In the case of `COc1cc(OC)c(-c2nc3c([nH]2)c(C2CC2)nn3C)cc1OC`, the cytotoxicity at 70.5 h is -3.1%.
The same measure for `Cc1nc(CN2CCCn3nc(CNC(=O)C4CCC4)cc3C2)co1`: 0.506%.
Next, `Clc1cccc2c3c([nH]c12)CCN(Cc1cc2n(n1)CCNC2)C3`: 22.8%; `Cn1ncc2c(NC3CN4CCC3CC4)nc(-c3ccncc3)nc21` (centres undefined): 12%.
Next, `CCCN(Cc1cccnc1)C(=O)C1CCNC1` (centres undefined): -1.17%.
As to `CCN1CC(C(=O)NCc2noc(Cc3ccccc3)n2)CCC1=O` (centres undefined), the cytotoxicity at 70.5 h was -12.4%.
Next, `CCN(CCCN1CCOCC1)C(=O)c1cnn(CC)c1`: 2.38%.
The same measure for `Nc1ncc(C(=O)N2CCC(O)(CO)CC2)c(-c2ccccc2)n1`: -15.6%.
Next, `CN(Cc1cc2n(n1)CCN(C(=O)c1cccnc1)C2)Cc1nccs1`: -12%; `CSCCC(=O)N1C[C@H](Nc2ccnc(C)n2)[C@@H](C(C)C)C1`: -23.4%; `c1ccc(SCCN2CCCC(Cn3ccnc3)C2)cc1` (centres undefined): -5.94%.
Turning to `CCCc1nnc(N2CCC(N3CCCC3)CC2)o1`, the cytotoxicity at 70.5 h stood at 26%.
`O=S(=O)(NCc1ccccc1)Nc1cccc(Cn2cncn2)c1`: the cytotoxicity at 70.5 h was -7.79%.
Next, `COc1ccccc1OCc1cc(C(=O)N2CCS(=O)(=O)CC2)n[nH]1`: -6.21%; `CCOc1ccnc(N2CCN(Cc3ncccc3C)CC2)n1`: 3.5%.
The same measure for `O=C(c1cccnc1-c1ccc2c(c1)OCCO2)N1CCCC1`: -8.05%.
As to `C[C@@H]1CN(CCOc2ccc(F)cc2)CC[C@@]1(O)C1CCOCC1`, the cytotoxicity at 70.5 h was -2.42%.
The same measure for `O=C(CCN1CCCC(CC2CC2)(C(=O)O)C1)NC1CCCC1` (centres undefined): -9.72%; for `OC1(CN2CCC(Oc3cccc(C(F)(F)F)c3)CC2)CNCCOC1` (centres undefined): -15.4%; for `Cc1cc(CN2CCCC2)cc(Oc2ccc(C(F)(F)F)cn2)c1`: -0.531%.
As to `NC(=O)CCC(=O)N1CCc2[nH]nc(-c3ccc4c(c3)OCO4)c2C1`, the cytotoxicity at 70.5 h is -5.52%.
Consider `O=C(Nc1ccccc1OCCc1ccccn1)N1CCOCC1`, for which the cytotoxicity at 70.5 h is -13.5%.
Next, `COc1ccc(F)cc1C(=O)N1CC(c2ccncc2)C1`: -10%.
Take `CCCc1nc(C)cc(N2CCC3(CCC(=O)N(CCCO)C3)CC2)n1`: the cytotoxicity at 70.5 h was -7.61%.
Regarding `COc1ccc2c(c1)C(C(=O)NCCN1CCOC1=O)CC(=O)N2` (centres undefined), the cytotoxicity at 70.5 h is -4.48%.
Take `COC(=O)[C@H]1C[C@@H](O)CCN1S(=O)(=O)c1c(C)cc(OC)c(C)c1C`: the cytotoxicity at 70.5 h was 27%.
Take `CN1CC[C@H]2CN(C(=O)c3csc(Cc4ccccc4)n3)C[C@H]21`: the cytotoxicity at 70.5 h was -5.61%.
Next, `CCNC(=O)[C@@H]1C[C@@H](NC(=O)c2cc(C)on2)CN1Cc1ccccn1`: 24.8%; `O=C(COC1CCCC1)N1C[C@@H]2COC[C@]2(COc2cccnc2)C1`: 3.14%; `O=C(NCCc1cccs1)[C@H]1CO[C@H]2CCN(CC3CC3)C[C@H]2C1`: -5.6%.
Next, `Cn1cccc1C(=O)N1CCC2(CCN(C(=O)c3cccnc3)C2)CC1`: 3.23%; `CC(C)CNC(=O)N1CC[C@@H]2CN(Cc3cccnc3)S(=O)(=O)[C@@H]2CC1`: -4.92%.
The same measure for `O=C(CC1CC1)N1CCC2(CC1)CN(c1cccnc1)C(=O)CO2`: -4.69%; for `CCS(=O)(=O)N1CCC2(CC1)CN(c1cccnc1)C(=O)CO2`: -5.49%.
Regarding `CS(=O)(=O)NC[C@]12COC[C@H]1CN(CC1CCC1)C2`, the cytotoxicity at 70.5 h was -12.2%.
`CN(Cc1cncnc1)[C@@H]1CN(C(=O)C2CC2)[C@@H]2CCCO[C@H]12`: the cytotoxicity at 70.5 h is -3.07%.
As to `CN(Cc1cncnc1)[C@@H]1CN(C(=O)c2ccco2)[C@@H]2CCCO[C@H]12`, the cytotoxicity at 70.5 h is -3.82%.
Regarding `CC1CCN(C(=O)[C@@H]2C[C@@H]3CCN(Cc4nccs4)C[C@H]3O2)CC1`, the cytotoxicity at 70.5 h was -6.62%.
Next, `CN(C)C(=O)[C@H]1C[C@@H]2CCN(Cc3ccoc3)C[C@@H]2O1`: -13.4%; `Cn1nc(COc2cccnc2)c2c1CCN(CC1CC1)C2`: -8.94%; `COc1ccc(CN2CCO[C@H]3[C@H](OCc4ccncc4)CC[C@@H]32)cc1`: 58.1%.
